Measured values from US20230085307A1, “PYRIDAZINONE COMPOUND AND HERBICIDE” (NISSAN CHEMICAL CORPORATION, priority 2019, published 2023).

Legend:
wild oat = test: Test Example 5: herbicidal effect by foliage application, plastic box (Table 20, symbol I); assay type: in vivo, wild oat (Avena fatua); details: foliage application, AAH 320 g/ha, evaluated three weeks after application
How it was run: (§1)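 Foliar spray test: emulsion formulation diluted in water to a set application rate, sprayed onto 14-day-old plants raised in diluvial soil at 25° C to 30° C under glass. Both herbicidal effect and crop effect rated visually three weeks later.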

blackgrass = test: Test Example 5: herbicidal effect by foliage application, plastic box (Table 20, symbol J); assay type: in vivo, blackgrass (Alopecurus myosuroides); details: foliage application, AAH 320 g/ha, evaluated three weeks after application
How it was run: as §1

green foxtail [1] = test: Test Example 5: herbicidal effect by foliage application, plastic box (Table 20, symbol G); assay type: in vivo, green foxtail (Setaria viridis); details: foliage application
How it was run: as §1

barnyard grass [2] = test: Test Example 3: herbicidal effect by foliage application, Wagner pot (Table 18, symbol H); assay type: in vivo, barnyard grass (Echinochloa crus-galli); details: amount of applied herbicide 320 g/ha
How it was run: (§2)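 Plants were sown in alluvial soil held under 0.1–0.5 cm standing water and grown 14 days in a greenhouse at 25–30 °C. An emulsifiable formulation, water-diluted to the set dose, was then sprayed onto the foliage, and effects were scored three weeks later using previously defined criteria.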

rice flat sedge = test: Test Example 3: herbicidal effect by foliage application, Wagner pot (Table 18, symbol E); assay type: in vivo, rice flat sedge (Cyperus iria); details: amount of applied herbicide 320 g/ha
How it was run: as §2

southern crabgrass [3] = test: Test Example 5: herbicidal effect by foliage application, plastic box (Table 20, symbol F); assay type: in vivo, southern crabgrass (Digitaria ciliaris); details: foliage application
How it was run: as §1

lambsquarters [4] = test: Test Example 5: herbicidal effect by foliage application, plastic box (Table 20, symbol O); assay type: in vivo, lambsquarters (Chenopodium album); details: foliage application
How it was run: as §1

redroot pigweed [5] = test: Test Example 5: herbicidal effect by foliage application, plastic box (Table 20, symbol N); assay type: in vivo, redroot pigweed (Amaranthus retroflexus); details: foliage application
Source text: (§3) [Test Example 5] Herbicidal Effect Test by Foliage Application
(§4) Sterilized diluvial soil was placed in a plastic box having a length of 21 cm, a width of 13 cm, and a depth of 7 cm. The seeds of each of southern crabgrass, green foxtail, barnyard grass, wild oat, blackgrass, Italian ryegrass, windgrass, velvetleaf, redroot pigweed, lambsquarters, chickweed, false cleavers, persian speedwell, corn, soybean, rice, wheat, beet, and rapeseed were sowed in a spot-like manner and covered with the soil having a thickness of about 1.5 cm. Thereafter, the plants were grown in a greenhouse at 25° C. to 30° C. After 14-day growth of the plants, the emulsion agent of the compound of the present invention prepared according to Formulation Example 2 was diluted with water so as to achieve a predetermined herbicide amount, and the diluted emulsion agent was uniformly applied to a foliage part with a small-sized spray. Three weeks after the herbicide application, the effect of the herbicide on each plant was evaluated according to the criteria of Test Example 1.

velvetleaf [6] = test: Test Example 5: herbicidal effect by foliage application, plastic box (Table 20, symbol M); assay type: in vivo, velvetleaf (Abutilon theophrasti); details: foliage application
How it was run: as §1

persian speedwell = test: Test Example 5: herbicidal effect by foliage application, plastic box (Table 20, symbol R); assay type: in vivo, Persian speedwell (Veronica persica); details: foliage application, AAH 320 g/ha, evaluated three weeks after application
How it was run: as §1

chickweed = test: Test Example 5: herbicidal effect by foliage application, plastic box (Table 20, symbol P); assay type: in vivo, common chickweed (Stellaria media); details: foliage application, AAH 320 g/ha, evaluated three weeks after application
Source text: as §3, §4

barnyard grass [7] = test: Test Example 5: herbicidal effect by foliage application, plastic box (Table 20, symbol H); assay type: in vivo, barnyard grass (Echinochloa crus-galli); details: foliage application
How it was run: as §1

Italian ryegrass = test: Test Example 5: herbicidal effect by foliage application, plastic box (Table 20, symbol K); assay type: in vivo, Italian ryegrass (Lolium multiflorum); details: foliage application, AAH 320 g/ha, evaluated three weeks after application
How it was run: as §1

lambsquarters [8] = test: Test Example 4: herbicidal effect by soil treatment (Table 19, symbol O); assay type: in vivo, lambsquarters (Chenopodium album); details: amount of applied herbicide 320 g/ha
Source text: (§5) [Test Example 4] Herbicidal Effect Test by Soil Treatment
as §4, with “Subsequently,” for “Thereafter, the plants were grown in a greenhouse at 25° C. to 30° C. After 14-day growth of the plants,”, “the surface of the soil” for “a foliage part”, “spray. The plastic box was placed in a greenhouse at 25° C. to 30° C. for growth of the plants.” for “spray.”

barnyard grass [9] = test: Test Example 4: herbicidal effect by soil treatment (Table 19, symbol H); assay type: in vivo, barnyard grass (Echinochloa crus-galli); details: amount of applied herbicide 320 g/ha
Source text: as §5
as §4, with “Subsequently,” for “Thereafter, the plants were grown in a greenhouse at 25° C. to 30° C. After 14-day growth of the plants,”, “the surface of the soil” for “a foliage part”, “spray. The plastic box was placed in a greenhouse at 25° C. to 30° C. for growth of the plants.” for “spray.”

green foxtail [10] = test: Test Example 4: herbicidal effect by soil treatment (Table 19, symbol G); assay type: in vivo, green foxtail (Setaria viridis); details: amount of applied herbicide 320 g/ha
Source text: as §5
as §4, with “Subsequently,” for “Thereafter, the plants were grown in a greenhouse at 25° C. to 30° C. After 14-day growth of the plants,”, “the surface of the soil” for “a foliage part”, “spray. The plastic box was placed in a greenhouse at 25° C. to 30° C. for growth of the plants.” for “spray.”

velvetleaf [11] = test: Test Example 4: herbicidal effect by soil treatment (Table 19, symbol M); assay type: in vivo, velvetleaf (Abutilon theophrasti); details: amount of applied herbicide 320 g/ha
Source text: as §5
as §4, with “Subsequently,” for “Thereafter, the plants were grown in a greenhouse at 25° C. to 30° C. After 14-day growth of the plants,”, “the surface of the soil” for “a foliage part”, “spray. The plastic box was placed in a greenhouse at 25° C. to 30° C. for growth of the plants.” for “spray.”

Chinese sprangletop = test: Test Example 3: herbicidal effect by foliage application, Wagner pot (Table 18, symbol D); assay type: in vivo, chinese sprangletop (Leptochloa chinensis); details: amount of applied herbicide 320 g/ha
How it was run: as §2

redroot pigweed [12] = test: Test Example 4: herbicidal effect by soil treatment (Table 19, symbol N); assay type: in vivo, redroot pigweed (Amaranthus retroflexus); details: amount of applied herbicide 320 g/ha
Source text: as §5
as §4, with “Subsequently,” for “Thereafter, the plants were grown in a greenhouse at 25° C. to 30° C. After 14-day growth of the plants,”, “the surface of the soil” for “a foliage part”, “spray. The plastic box was placed in a greenhouse at 25° C. to 30° C. for growth of the plants.” for “spray.”

southern crabgrass [13] = test: Test Example 4: herbicidal effect by soil treatment (Table 19, symbol F); assay type: in vivo, southern crabgrass (Digitaria ciliaris); details: amount of applied herbicide 320 g/ha
Source text: as §5
as §4, with “Subsequently,” for “Thereafter, the plants were grown in a greenhouse at 25° C. to 30° C. After 14-day growth of the plants,”, “the surface of the soil” for “a foliage part”, “spray. The plastic box was placed in a greenhouse at 25° C. to 30° C. for growth of the plants.” for “spray.”

[14] = AAH 320 g/ha, evaluated three weeks after application
[15] = 320 g/ha, three weeks after application

C=CCOc1c(C)nn(C)c(=O)c1-c1c(-c2ccc(OC(F)F)cc2)sc2ccc(F)cc12 [2-300]
I: wild oat, herbicidal effect (criteria 0-5) (wild oat): 0 (Herbicidal rate of 5% or less (almost no effect)) | J: blackgrass, herbicidal effect (criteria 0-5) (blackgrass): 0 (Herbicidal rate of 5% or less (almost no effect)) | G: green foxtail, herbicidal effect (criteria 0-5) (green foxtail [1]; [14]): 0 (Herbicidal rate of 5% or less (almost no effect)) | herbicidal effect on H: barnyard grass (barnyard grass [2]): 3 (Herbicidal rate of 40% or more and less than 70%) | herbicidal effect on E: rice flat sedge (rice flat sedge): 3 (Herbicidal rate of 40% or more and less than 70%) | F: southern crabgrass, herbicidal effect (criteria 0-5) (southern crabgrass [3]; [14]): 0 (Herbicidal rate of 5% or less (almost no effect)) | O: lambsquarters, herbicidal effect (criteria 0-5) (lambsquarters [4]; [14]): 5 (Herbicidal rate of 90% or more (almost completely withered)) | N: redroot pigweed, herbicidal effect (criteria 0-5) (redroot pigweed [5]; [14]): 3 (Herbicidal rate of 40% or more and less than 70%) | M: velvetleaf, herbicidal effect (criteria 0-5) (velvetleaf [6]; [14]): 1 (Herbicidal rate of 5% or more and less than 20%) | R: persian speedwell, herbicidal effect (criteria 0-5) (persian speedwell): 5 (Herbicidal rate of 90% or more (almost completely withered)) | P: chickweed, herbicidal effect (criteria 0-5) (chickweed): 5 (Herbicidal rate of 90% or more (almost completely withered)) | H: barnyard grass, herbicidal effect (criteria 0-5) (barnyard grass [7]; [14]): 0 (Herbicidal rate of 5% or less (almost no effect)) | K: Italian ryegrass, herbicidal effect (criteria 0-5) (Italian ryegrass): 0 (Herbicidal rate of 5% or less (almost no effect))

CC(CSc1ccc(-c2sc3ccc(F)cc3c2-c2c(O)c(C)nn(C)c2=O)cc1)=NO [2-452]
herbicidal effect, O: lambsquarters (lambsquarters [8]): 4 (Herbicidal rate of 70% or more and less than 90%) | G: green foxtail, herbicidal effect grade (green foxtail [1]; [15]): 5 (Herbicidal rate of 90% or more (almost completely withered)) | herbicidal effect on H: barnyard grass (barnyard grass [2]): 5 (Herbicidal rate of 90% or more (almost completely withered)) | herbicidal effect, H: barnyard grass (barnyard grass [9]): 0 (Herbicidal rate of 5% or less (almost no effect)) | herbicidal effect on E: rice flat sedge (rice flat sedge): 5 (Herbicidal rate of 90% or more (almost completely withered)) | herbicidal effect, G: green foxtail (green foxtail [10]): 0 (Herbicidal rate of 5% or less (almost no effect)) | herbicidal effect, M: velvetleaf (velvetleaf [11]): 0 (Herbicidal rate of 5% or less (almost no effect)) | F: southern crabgrass, herbicidal effect grade (southern crabgrass [3]; [15]): 3 (Herbicidal rate of 40% or more and less than 70%) | O: lambsquarters, herbicidal effect grade (lambsquarters [4]; [15]): 5 (Herbicidal rate of 90% or more (almost completely withered)) | N: redroot pigweed, herbicidal effect grade (redroot pigweed [5]; [15]): 5 (Herbicidal rate of 90% or more (almost completely withered)) | herbicidal effect on D: Chinese sprangletop (Chinese sprangletop): 0 (Herbicidal rate of 5% or less (almost no effect)) | herbicidal effect, N: redroot pigweed (redroot pigweed [12]): 5 (Herbicidal rate of 90% or more (almost completely withered)) | M: velvetleaf, herbicidal effect grade (velvetleaf [6]; [15]): 5 (Herbicidal rate of 90% or more (almost completely withered)) | H: barnyard grass, herbicidal effect grade (barnyard grass [7]; [15]): 5 (Herbicidal rate of 90% or more (almost completely withered)) | herbicidal effect, F: southern crabgrass (southern crabgrass [13]): 0 (Herbicidal rate of 5% or less (almost no effect))
